Reference: patent US12162836B2, “N-acyl-{4-[(4-aryl-phenyl)sulfonylmethyl]piperidine} compounds and their therapeutic use” (Modern Biosciences Limited, priority 2019, dated 2024)
≈ marks a conversion by molar mass, not a printed value.

Key:
[1] = Aqueous solubility in FaSSIF; assay type: physicochemical; conditions: for solubility at 16 h: kinetic from dmso stock, pH 6.5, 16 hours, room temperature
Procedure: Aqueous solubility was measured by equilibration of compounds with fasted state simulated intestinal fluid (FaSSIF) and quantified spectrophotometrically.
Preparation of blank FaSSIF: 0.21 g of sodium hydroxide (NaOH) pellets, 1.97 g of dihydrogen sodium phosphate (NaH2PO4.2H2O) and 3.09 g of sodium chloride (NaCl) were dissolved in 400 mL of deionised water. The pH was adjusted to 6.5 using 1 M hydrochloric acid and further deionised water added to a final volume of 500 mL.
Preparation of FaSSIF: 0.056 g of SIF Powder (containing sodium taurocholate and lecithin) (Pharses A G) was dissolved in 25 mL of blank FaSSIF and stirred until the powder was completely dissolved. The solution was allowed to stand for 2 hours during which it became opalescent; it was used within 24 hours. The final solution composition was characterised as follows: • Sodium taurocholate: 3 mM • Lecithin: 0.75 mM • Osmolarity: 270±10 mOsmol • pH: 6.5
The optical density was measured at the end of the incubation period for test compounds and a reference used to determine solubility. In brief, two samples were prepared for each determination: a reference sample consisting of a stock solution of test compound in DMSO diluted in system solution (a phosphate free, low absorption buffer) and propanol; and a test sample (prepared in triplicate) consisting of 0.5 mL FaSSIF spiked with test compound at 0.2 mM. Each sample was incubated at room temperature for 16 hours with constant shaking at 250 rpm. At the end of the incubation period, 0.3 mL of each sample was filtered through a pION filter plate (PION, Woburn MA), diluted 1:1 with propanol and scanned using UV spectrophotometry at Amax ([…]) using a Spectra Max Plus—Version 2.1000 (Molecular Devices, Sunnyvale, CA), with pSOL Explorer solubility determination software (pION, Woburn, MA).
FaSSIF solubility was calculated using the following formula:
[formula] • wherein: • “OD” is the optical density; • “Cr” is the concentration of the reference (33.4 μM); and • “molecular weight” is for the test compound (e.g., 381.44 for ABD735).

[2] = system: human hepatocytes; experiment: Human Hepatocyte Stability; assay type: in vitro ADME; conditions: for metabolic stability (in words): human hepatocytes
Procedure: (§1) Metabolic stability of test compounds was measured by determination of the rate of disappearance of the compound when incubated in the presence of human hepatocytes, a primary source of the most important enzymes (cytochrome P450s) involved in drug metabolism. Study of drug stability in the presence of primary hepatocytes is accepted as a valuable model permitting rapid prediction of in vivo drug stability.
(§2) Human hepatocytes were obtained from a commercial source and viability was assessed using a trypan blue solution prior to use. Test compounds (final concentration 1 μM, 0.1 DMSO, 0.9% acetonitrile) or a marker (diclofenac or diltiazem, final assay concentration 1 μM, 0.1% DMSO, 0.9% acetonitrile) were incubated with pooled hepatocytes for a 60 minute period and samples removed at up to 6 time points and analysed by LC-MS/MS for the presence/amount of test compounds.
(§3) Each compound was incubated for 0, 5, 15, 30, 45, or 60 minutes. The reactions were stopped by the addition of methanol containing an internal standard (1 μM Tolbutamide) at the appropriate time points, mixed and placed at −20° C. for 1 hour to quench and allow protein to precipitate. All samples were centrifuged (2500× g, 20 minutes, 4° C.). The aliquots were analysed using LC-MS/MS. Reactions were performed in duplicate at 37° C.
(§4) Data were processed, and the results plotted as In(concentration) vs. time. The elimination rate constant (slope of the regression line, k) was calculated using the following formula, where C(t) is the concentration at time t and C(0) is the starting concentration:
(§5) The half-life (t1/2) was calculated using the following formula: […]
(§6) The intrinsic clearance (Clint) was calculated using the following formula, where [cell] is the hepatocyte concentration in the assay: […]

[3] = system: Thp1 human monocytic cells; experiment: Thp1 Monocyte ATP Production Assay (ATPlite); assay type: cell-based; conditions: Thp1 cells, 24 hour incubation, mean of 2 independent experiments
Procedure: In vitro potency of test compounds was determined by incubation with Thp1 human monocytic cells and subsequent determination of Adenosine TriPhosphate (ATP) levels using firefly luciferase.
ATP is present in all metabolically active cells. When cells lose integrity, their ability to synthesise ATP is rapidly lost. […] See, e.g., Kang et al., 2015; Jiang et al., 2013. Levels of ATP can be monitored using a system based on firefly (Photinus pyralis) luciferase (see, e.g., Auld et al., 2009) using commercially available kits. A system known as ATPlite™ was using to measure effects of the test compounds on cellular viability in vitro. This one-step assay system is an adenosine triphosphate (ATP) monitoring system based on the production of light caused by the reaction of ATP from the cells with added luciferase and D-luciferin, as illustrated in the reaction scheme below:
Thp1 cells were plated at 112500 cells per well in 125 μL RPMI-1640 (no glucose) with 1% FBS in 96-well plates. Test compounds were prepared as 100 mM solutions in DMSO. These stock solutions were diluted in DMSO and then diluted 1000× in culture medium (RPMI) before being added directly to the wells so as to give the desired final compound concentration. After a 24 hour incubation at 37° C./5% CO2, ATPLite™ (Perkin Elmer) was added to each well (1:10 v/v, 10 μL). The plate was then incubated at room temperature for 5 minutes and the emitted light was quantified on Viewlux with a measurement time of 0.3 seconds and binning 4×4.
The average results for each test compound were expressed as a percent (%) of the average control value reflecting cell viability. The average values across the concentrations tested were then plotted and the IC50 for was calculated by fitting the data to a 4-parameter IC50 equation using software from Graf it (Erithacus Software). Each experiment was repeated twice and the data are presented as the mean IC50 from both experiments.

[4] = Human Hepatocyte Stability; assay type: in vitro ADME; conditions: pooled human hepatocytes, 1 μM, 60 minute incubation; for half-life at 1 μM: read-out: Human t1/2
Procedure: as §1, §2, §3, §4, §5, §6

[5] = molecular target: hERG (Homo sapiens (Human), UniProt Q12809); experiment: hERG Ion Channel binding assay (3H astemizole displacement); conditions: human, membranes of HEK293 cells stably expressing hERG, pH 7.4, probe 3H astemizole (1.5 nM); 30 μM; displacement of 3H astemizole, hERG-HEK293 membranes
hERG, sequence (Q12809 whole entry): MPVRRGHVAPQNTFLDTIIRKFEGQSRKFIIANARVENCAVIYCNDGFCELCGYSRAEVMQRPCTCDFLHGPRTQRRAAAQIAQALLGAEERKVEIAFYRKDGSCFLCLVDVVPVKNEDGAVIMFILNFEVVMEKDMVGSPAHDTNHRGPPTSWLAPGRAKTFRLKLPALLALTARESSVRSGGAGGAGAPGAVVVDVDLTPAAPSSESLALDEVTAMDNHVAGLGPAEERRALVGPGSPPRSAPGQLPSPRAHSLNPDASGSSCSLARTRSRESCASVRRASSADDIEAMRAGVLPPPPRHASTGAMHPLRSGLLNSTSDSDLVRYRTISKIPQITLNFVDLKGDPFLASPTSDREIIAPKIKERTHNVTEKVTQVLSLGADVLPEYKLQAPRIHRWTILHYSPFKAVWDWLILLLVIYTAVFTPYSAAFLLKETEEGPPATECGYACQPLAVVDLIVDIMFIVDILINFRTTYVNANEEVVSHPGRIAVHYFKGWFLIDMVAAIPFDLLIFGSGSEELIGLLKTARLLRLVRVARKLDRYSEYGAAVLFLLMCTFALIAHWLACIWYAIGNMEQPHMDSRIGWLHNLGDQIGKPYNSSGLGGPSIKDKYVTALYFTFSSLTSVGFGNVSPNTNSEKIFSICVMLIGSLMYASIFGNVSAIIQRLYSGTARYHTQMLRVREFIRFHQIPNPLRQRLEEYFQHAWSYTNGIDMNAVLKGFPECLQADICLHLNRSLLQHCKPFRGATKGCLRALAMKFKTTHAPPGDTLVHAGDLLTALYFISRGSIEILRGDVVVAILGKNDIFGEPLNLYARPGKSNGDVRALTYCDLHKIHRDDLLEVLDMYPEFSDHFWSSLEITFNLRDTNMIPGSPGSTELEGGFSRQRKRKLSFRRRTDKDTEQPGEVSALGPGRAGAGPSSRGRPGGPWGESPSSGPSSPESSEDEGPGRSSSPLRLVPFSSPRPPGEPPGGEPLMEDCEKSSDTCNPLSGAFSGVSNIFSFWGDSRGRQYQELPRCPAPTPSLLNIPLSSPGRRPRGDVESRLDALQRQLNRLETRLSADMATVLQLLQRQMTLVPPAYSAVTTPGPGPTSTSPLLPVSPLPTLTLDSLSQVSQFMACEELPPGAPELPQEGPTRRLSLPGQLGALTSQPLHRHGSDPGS
Procedure: The activity of the compounds against the hERG ion channel was tested using a binding assay in stably transfected Human Embryonic Kidney cells (hERG-HEK293). hERG-HEK293 cells were cultured in MEM medium (Invitrogen)+10% FBS, glutamine and non-essential amino acids at 37° C. To prepare membranes, cells were homogenised on ice, centrifuged at 650×g for 10 minutes at +4° C., and the resulting supernatant centrifuged at 48000×g for 10 minutes at +4° C. The pellet was resuspended in ice-cold 50 mM Tris-HCl buffer, 5 mM KCl (pH 8.5) and stored frozen in aliquots until use.
For binding assays, membranes were thawed, re-suspended in assay buffer (10 mM HEPES pH 7.4, 0.1% BSA, 5 mM potassium chloride, 0.8 mM magnesium chloride, 130 mM sodium chloride, 1 mM sodium-EGTA, 10 mM glucose) and incubated with ^3H astemizole (1.5 nM), and with or without test compound at 25° C. for 60 minutes. Binding was determined following filtration of the membranes and washing in Tris-HCl buffer by scintillation counting of ^3H astemizole.
The degree of binding of compounds to the hERG ion channel (%) was obtained by measuring the binding of ^3H astemizole and its displacement by test compound. A value of 0% indicates no binding and a value of 100% indicates complete displacement of the radiolabelled ligand.

[6] = pooled human hepatocytes, 1 μM, 60 minute incubation
[7] = Homo sapiens, THP-1, 9-point concentration range from 10 μM to 10 nM

Structure (SMILES)	solubility at 16 h [1]	hepatocyte CLint at 1 μM [4]	half-life at 1 μM [4]	metabolic stability (in words) [2]	IC50 [3, 7]	inhibition at 60 min, 30 µM [5]	also measured
CC1(O)CCC(NS(=O)(=O)c2ccc(-c3ccc(F)cc3F)cc2)CC1 (stereo not shown) [ABD900, reference compound]							Solubility ([1]; pH 6.8): 120 µg/mL (≈ 315 µM); Human Clint [2, 6]: 6.3 uL/min/million cells; Human t1/2 [2, 6]: 3.67 h; IC50 ([3]; 9-point concentration range from 10 μM to 10 nM): 1.1 µM
CC(=O)N1CCC(CS(=O)(=O)c2ccc(-c3ccc(F)c(F)c3)cc2)CC1 [NASMP-02, 1-(4-(((3′,4′-Difluoro-[1,1′-biphenyl]-4-yl)sulfonyl)methyl)piperidin-1-yl)ethan-1-one]	32 µg/mL (≈ 81.3 µM)	< 3 µL/min/1e6 cells	> 7.67 h	exceptionally good stability	7.9 µM	30%	
CC(=O)N1CCC(CS(=O)(=O)c2ccc(-c3cc(F)ccc3F)cc2)CC1 [NASMP-03, 1-(4-(((2′,5′-Difluoro-[1,1′-biphenyl]-4-yl)sulfonyl)methyl)piperidin-1-yl)ethan-1-one]	42 µg/mL (≈ 107 µM)	< 3 µL/min/1e6 cells	> 7.67 h	exceptionally good stability	3 µM	20%	
CC(=O)N1CCC(CS(=O)(=O)c2ccc(-c3ccc(C#N)cc3F)cc2)CC1 [NASMP-04, 4′-(((1-Acetylpiperidin-4-yl)methyl)sulfonyl)-2-fluoro-[1,1′-biphenyl]-4-carbonitrile]					1.7 µM		
CC(=O)N1CCC(CS(=O)(=O)c2ccc(-c3cccc(F)c3F)cc2)CC1 [NASMP-08, 1-(4-(((2′,3′-Difluoro-[1,1′-biphenyl]-4-yl)sulfonyl)methyl)piperidin-1-yl)ethan-1-one]					3.8 µM		
CC(=O)N1CCC(CS(=O)(=O)c2ccc(-c3ccc(C#N)cc3)c(F)c2)CC1 [NASMP-10, 4′-(((1-Acetylpiperidin-4-yl)methyl)sulfonyl)-2′-fluoro-[1,1′-biphenyl]-4-carbonitrile]					3.5 µM		
CC(=O)N1CCC(CS(=O)(=O)c2ccc(-c3ncc(F)cc3F)c(F)c2)CC1 [NASMP-11, 1-(4-(((4-(3,5-Difluoropyridin-2-yl)-3-fluorophenyl)sulfonyl)methyl)piperidin-1-yl)ethan-1-one]		3.3 µL/min/1e6 cells	> 1 h		1.6 µM		
CC(=O)N1CCC(CS(=O)(=O)c2ccc(-c3ccc(F)cc3F)c(C#N)c2)CC1 [NASMP-13, 4-(((1-Acetylpiperidin-4-yl)methyl)sulfonyl)-2′,4′-difluoro-[1,1′-biphenyl]-2-carbonitrile]					1.7 µM		
CN(C)C(=O)N1CCC(CS(=O)(=O)c2ccc(-c3ccc(F)cc3F)cc2)CC1 [NASMP-14, 4-(((2′,4′-Difluoro-[1,1′-biphenyl]-4-yl)sulfonyl)methyl)-N,N-dimethylpiperidine-1-carboxamide]		28.2 µL/min/1e6 cells	0.97 h		1.4 µM		
CC(=O)N1CCC(C)(CS(=O)(=O)c2ccc(-c3ccc(Cl)cc3C#N)cc2)CC1 [NASMP-16, 4′-(((1-Acetyl-4-methylpiperidin-4-yl)methyl)sulfonyl)-4-chloro-[1,1′-biphenyl]-2-carbonitrile]			> 1 h	exceptionally good stability	1.5 µM		
CC(=O)N1CCC(C(F)(F)S(=O)(=O)c2ccc(-c3ccc(F)cc3F)cc2)CC1 [NASMP-19, 1-(4-(((2′,4′-Difluoro-[1,1′-biphenyl]-4-yl)sulfonyl)difluoromethyl)piperidin-1-yl)ethan-1-one]	27 µg/mL (≈ 62.9 µM)	11.7 µL/min/1e6 cells	1.92 h		2.8 µM	21%	
CC(=O)N1CCC(CS(=O)(=O)c2ccc(-c3cc(F)cc(F)c3)cc2)CC1 [NASMP-20, 1-(4-(((3′,5′-Difluoro-[1,1′-biphenyl]-4-yl)sulfonyl)methyl)piperidin-1-yl)ethan-1-one]	37 µg/mL (≈ 94 µM)	< 3 µL/min/1e6 cells	> 7.67 h	exceptionally good stability		39%	IC50 ([3]; Homo sapiens, THP-1, 8-point concentration range from 100 μM to 100 nM): 18.1 µM
